Results published in patent US8586307B2, “Methods for diagnosing epigenetic, transgenerational effects of environmental toxicants on mammalian germ-lines and treating associated diseases” (priority 2005, dated 2013).

Tests used:
E16 testis = test: Microarray gene expression analysis of embryonic testis; format: in vivo, rat; conditions: F1 and F2 generation E16 testis vs control
Excerpt: Microarray analysis: RNA was collected from embryonic day […] 16 (E16) testis from control and E16 vinclozolin F1 and F2 generation animals as described above for Example I. RNA was hybridized to the Affymetrix (Affymetrix, Santa Clara, Calif.) rat 230A gene chip. The Genomics Core in the Center for Reproductive Biology at Washington State University, Pullman, Wash., performed the analysis as previously described, and incorporated by reference herein [149, 150]. Briefly, RNA from the cells was reverse transcribed into cDNA then was transcribed into biotin labeled RNA. Biotin labeled RNA was then hybridized to the Affymetrix rat 230A gene chips. Each gene set is composed of 16 pairs of […] oligonucleotides, with one sense strand specific for the gene and one anti-sense strand with single point mutations for use as a comparative negative control. Biotinalated RNA was then visualized by labeling with phycoerythrin-coupled avidin. The microarray was scanned on a Hewlett-Packard Gene Array Scanner (Hewlett-Packard Co., Palo Alto, Calif.).
Bioinformatics: The majority of the data analysis was performed using the Affymetrix Microarray Suite Software (Affymetrix, Santa Clara, Calif.). […] Basic expression analysis was determined by accessing the Affymetrix database through the Microarray Suite Software. […]

spermatogenic cells = test: Spermatogenic cell apoptosis in testis sections (TUNEL) after transient embryonic exposure; conditions: rat, in vivo
Protocol: In Vivo Procedures: Gestating outbred Sprague-Dawley and inbred Fisher mother rats from timed, pregnant colonies housed at the Washington State University Vivarium, were given intraperitoneal injections of vinclozolin (100 mg/kg/day) and methoxychlor (200 mg/kg/day) from embryonic day 8-15 (E8-E15, sperm positive vaginal smear date=E0) of gestation (F0 generation) as previously described. Gestating mothers administered vehicle, sesame oil or DMSO, served as controls. At least 6 lines (individual F0 injected females) were generated for controls and treated groups for these analyses. Male rats from control and treated groups were collected at P60-P180 for analyses. F1 treated males were bred to F1 treated females to generate the F2 treated generation and F2 treated males were bred to F2 treated females to generate the F3 generation and the F3 were bred in the same manner to generate the F4 generation. Rats for the control groups were bred in the same manner for all the generations. No inbreeding or sibling crosses were generated. The outcross group (VOC) were generated by breeding the F2 treated males with wild-type females (total of 6 litters) and reverse outcross group (RVOC) was generated by breeding F2 treated females with wild-type males (total of 3 litters). Control (n=4) and treated (n=4) male offspring from the F1 generation from Fisher strain rats were collected at P6 for DNA methylation analysis, see below. All procedures have been approved by the Washington State University Animal Care Committee. The number of animals used for replicates in the experiments (i.e. n value) are as follows for vinclozolin treatment: F1 (control 11, treated 12); F2 (control 19, treated 30); F3 (control 19, treated 26); F4 (control 10, treated 17); VOC (18); and RVOC (6). […]
Detection of Cell Apoptosis: To detect apoptotic cells in testis sections, the Fluorescien In Situ Cell Death Detection Kit (Roche Applied Science, Indianapolis, Ind.) was utilized. […] Fluorescent apoptotic cells were imaged on a confocal microscope and quantitation of number of apoptotic cells per testis cross section. […]

`C=CC1(C)OC(=O)N(c2cc(Cl)cc(Cl)c2)C1=O` (centres unmarked) [vinclozolin] was tested, and the “expression of Fadd, Pbm1b, Rps12 and Waspip” value (E16 testis) was “increased expression”, the “expression of ankyrin 28, Ncstn, Rab12 and Lrrn6a” value (E16 testis) was “reduced expression” and the “males analyzed that had the increased spermatogenic cell apoptosis” value (spermatogenic cells; male) was “Greater than 90%”. The “effect on the spermatogenic cells in reverse outcross (RVOC)” value (spermatogenic cells) was “no effect” and the “spermatogenic cell apoptosis in outcross (VOC) males” value (spermatogenic cells) was “increase”.
